Read-outs that look alike come from different tables or passages of the source.
Columns and labels:
[1] = system: human activated platelets; experiment: Binding of compounds to human activated platelets (Gd by ICP-MS in pellet and supernatant); type: cell-based
Experimental: For each experiment fresh blood was taken from a volunteer using 10 mL citrate-tubes (Sarstedt S-Monovette 02.1067.001, 10 mL, Citrate 3.13%). The 10 mL citrate-tubes were carefully inverted 10 times to mix blood and anticoagulant. The tubes were stored in an incubator at a temperature of 37° C. until centrifugation (Heraeus miniTherm CTT with integrated rotation- and turning device, turning speed: 19 rotations per minute, Heraeus Instruments GmbH, Hanau/Germany).
For plasma preparation tube centrifugation was carried out for 15 minutes at 1811 g at room temperature (Eppendorf, Centrifuge 5810R). To produce platelet-rich plasma blood was centrifuged 15 minutes at 201 g at room temperature. The tubes were stood for 30 min at room temperature to get a better separation. The separated platelet-rich plasma was finally centrifuged for further 3 min at 453 g to remove the remaining erythrocytes. The platelet-rich plasma was activated using a final concentration of 5 μM Adenosindiphosphate (ADP, Sigma). The activated platelet-rich plasma was incubated 20 minutes […] with different concentrations of gadolinium-labeled compound and subsequently was centrifuged 3 minutes at 1360 g. 20 μL of supernatant was taken to determine the concentration (n=3). The pellet was resuspended and washed two times with at least 750 μL plasma and subsequently was redispered in 750 μL plasma and 50 μL calciumchloride (50 μL 2%).

[2] = system: thrombus; conditions: 40 min after last injection; for Gadolinium concentration: 4 repeated doses of 1 μM Gadolinium/kg bw i.v.; for thrombus/blood ratio: total dose 4 μM Gadolinium/kg bw
Experimental: The specific binding of the compound described in Example 1 was investigated in cynomolgus monkey (female 3.0 kg bodyweight).
The monkey was anesthetized with a mixture of Xylazin (Rompun®, Bayer HealthCare, Leverkusen, Germany), 0.12 mL/Kg and Ketamine (Ketavet®, Pfizer) 0.12 mL/Kg b.w. i.m. While the investigation, small amounts of Xylazin/Ketamine (1+1) have been injected i.m. if required. The left common carotid artery was exposed 10 min with iron-III-chloride solution (10%). Following thrombus induction the monkey received 1 μmol Gadolinium/kg bodyweight (equals 0.125 μmol molecule/kg bodyweight) i.v. Afterwards, the right carotid artery was exposed 8 min with iron-III-chloride solution (10%) and the monkey received a repeated dose of 1 μmol Gadolinium/kg bodyweight iv.
After the first two contrast media applications the right carotid artery was exposed surgically and a polyethylene-tube ([…] Polyethylene Tubing, Clay Adams, PE50), which was roughened previously by sandpaper (600—CAMI Grit designation), was inserted into the vessel, advanced into the descending aorta and was left there for 30 minutes to allow for the development of a thrombus on the rough surface of the tube. The monkey received 1 μmol Gadolinium/kg bodyweight (equals 0.125 μmol molecule/kg bodyweight) i.v. 30 min and 90 min post catheterization. 40 min after the last contrast media application the animal was sacrificed using Pentobarbital (Narcoren). The gadolinium concentrations in blood, thombus of the left and right carotis, right carotis, left carotis, jugular vein and aorta were determined using an inductively coupled plasma mass spectrometry (ICP-MS Agilent 7500a).

[3] = system: in vitro platelet-rich thrombi; experiment: Magnetic resonance imaging of in vitro platelet-rich thrombi; type: cell-based, human; conditions: 20 min incubation, washed three times, 1.5 T 3D TSE
Experimental: Magnetic resonance imaging of in vitro platelet-rich thrombi and incubation solution (example 1) using a 3D turbo spin echo sequence (1.5 T, Siemens Avanto, small extremity coil, TR 1050 ms, TE 9.1 ms, 0.5×0.5×0.6 mm^3). In FIG. 2a an in vitro control thrombus without the addition of a contrast agent is shown. The signal intensity of the control thrombus is slightly higher than the surrounding medium but clearly lower than the signal of the in vitro thrombus which was incubated with Example 1 as depicted in FIG. 2b. In FIG. 2c the incubation solution with a final concentration of 10 μmol substance/L of example 1 in human plasma is represented. The signal intensity is higher than the surrounding plasma solutions in the in vitro platelet-rich thrombi 2a and 2b.
The in vitro thrombus in FIG. 2b is incubated with the solution which is depicted in FIG. 2c. After 20 min incubation period the thrombi was washed three times with plasma solution.
Magnetic resonance imaging of in vitro platelet-rich thrombi and incubation solution (Example 1) using a 3D turbo spin echo sequence (1.5 T, Siemens Avanto, small extremity coil, TR 1050 ms, TE 9.1 ms, 0.5×0.5×0.6 mm^3). In FIG. 3a an in vitro control thrombus without the addition of a contrast agent is shown. […]

[4] = target: human GPIIb/IIIa receptor (Homo sapiens, UniProt P05106+P08514); experiment: biochemical
human GPIIb/IIIa receptor, sequence (P08514 32-887 limits assumed): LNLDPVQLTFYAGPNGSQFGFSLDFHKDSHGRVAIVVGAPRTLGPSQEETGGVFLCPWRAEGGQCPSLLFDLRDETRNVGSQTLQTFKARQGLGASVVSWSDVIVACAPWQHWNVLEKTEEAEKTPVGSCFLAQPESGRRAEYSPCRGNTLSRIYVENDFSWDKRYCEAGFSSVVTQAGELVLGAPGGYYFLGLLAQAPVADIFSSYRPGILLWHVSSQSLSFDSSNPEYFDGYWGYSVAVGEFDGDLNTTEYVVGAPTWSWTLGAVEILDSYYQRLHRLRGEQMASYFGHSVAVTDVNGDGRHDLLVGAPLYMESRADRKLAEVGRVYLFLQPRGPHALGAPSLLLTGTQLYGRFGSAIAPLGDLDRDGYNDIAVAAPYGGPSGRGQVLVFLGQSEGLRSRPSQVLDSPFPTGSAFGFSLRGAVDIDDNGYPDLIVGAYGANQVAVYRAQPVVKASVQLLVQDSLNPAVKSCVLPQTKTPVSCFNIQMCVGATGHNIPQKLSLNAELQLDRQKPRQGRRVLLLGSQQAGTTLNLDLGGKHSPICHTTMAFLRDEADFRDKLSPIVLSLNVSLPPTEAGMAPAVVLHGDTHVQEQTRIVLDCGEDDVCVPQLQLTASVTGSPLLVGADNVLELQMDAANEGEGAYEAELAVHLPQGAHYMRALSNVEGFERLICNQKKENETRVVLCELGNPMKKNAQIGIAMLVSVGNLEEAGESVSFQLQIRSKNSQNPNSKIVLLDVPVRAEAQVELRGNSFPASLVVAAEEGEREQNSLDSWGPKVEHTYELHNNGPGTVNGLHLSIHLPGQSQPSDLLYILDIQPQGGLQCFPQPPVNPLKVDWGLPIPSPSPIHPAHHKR
human GPIIb/IIIa receptor, sequence (P05106 27-788): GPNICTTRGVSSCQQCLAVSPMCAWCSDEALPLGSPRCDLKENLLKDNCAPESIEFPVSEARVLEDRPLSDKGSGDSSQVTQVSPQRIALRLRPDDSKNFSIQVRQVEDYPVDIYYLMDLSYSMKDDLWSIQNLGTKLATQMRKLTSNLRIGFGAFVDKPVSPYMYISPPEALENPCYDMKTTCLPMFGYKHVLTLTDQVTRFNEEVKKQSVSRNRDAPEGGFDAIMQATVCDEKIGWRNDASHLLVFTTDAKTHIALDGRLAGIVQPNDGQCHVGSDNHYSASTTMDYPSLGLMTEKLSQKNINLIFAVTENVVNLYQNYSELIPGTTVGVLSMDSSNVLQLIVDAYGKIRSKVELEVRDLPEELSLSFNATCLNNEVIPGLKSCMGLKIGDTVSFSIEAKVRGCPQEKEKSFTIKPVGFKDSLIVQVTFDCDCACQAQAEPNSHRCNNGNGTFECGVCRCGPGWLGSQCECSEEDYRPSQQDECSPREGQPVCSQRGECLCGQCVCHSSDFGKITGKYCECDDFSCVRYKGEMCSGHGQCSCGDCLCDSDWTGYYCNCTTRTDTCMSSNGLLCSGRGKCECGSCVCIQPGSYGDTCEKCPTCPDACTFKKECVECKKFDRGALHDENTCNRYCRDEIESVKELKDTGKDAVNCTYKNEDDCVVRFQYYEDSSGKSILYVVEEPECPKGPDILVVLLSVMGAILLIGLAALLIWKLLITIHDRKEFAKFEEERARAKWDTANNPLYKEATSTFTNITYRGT
Experimental: Affinity assay: In the first step human GPIIb/IIIa purified from human platelets was immobilized on a 96-well solid plate. After 48 hours the plates were washed and the unspecific binding sites were blocked with Roti®-Block. […] In the next step, the plates were simultaneously incubated with a tritium labeled known GPIIb/IIIa binder (^3H) mixed with increasing concentrations of the novel compounds (inhibitor). […] The fraction of tritiated compound (^3H), which is not displaced by inhibitor, was measured in a microplate scintillation counter. […]
The maximum value of tritiated reference compound was determined without addition of inhibitor (n=8). […]
After one hour the plate was washed three times with phosphate-buffered saline (200 μL per well, Dulbecco's Phosphate Buffered Saline (D-PBS (+)), GIBCO®, Invitrogen). […] After 15 min at room temperature the plates were measured at the microplate scintillation counter (TopCount NXT v2.13, Perkin Elmer, Packard Instrument Company).
In the first step human glycoprotein IIb/IIIa, which is purified from human platelets, was immobilized on a 96-well solid plate. […] The fraction of tritiated reference compound, which is not displaced by inhibitor, was measured at a microplate scintillation counter. […] By means of this assay the affinities (1050 values) could be determined.

[5] = incubation concentration 1 μM molecule, incubation time 3 min
[6] = incubation concentration 1 μM molecule, incubation time 20 min
[7] = incubation concentration 10 μM molecule, incubation time 20 min

CC(C(=O)NCC(=O)NCC(NC(=O)CNC(=O)C(C)N1CCN(CC(=O)O)CCN(CC(=O)O)CCN(CC(=O)O)CC1)C(=O)NCC(NC(=O)C(CNC(=O)CNC(=O)C(C)N1CCN(CC(=O)O)CCN(CC(=O)O)CCN(CC(=O)O)CC1)NC(=O)CNC(=O)C(C)N1CCN(CC(=O)O)CCN(CC(=O)O)CCN(CC(=O)O)CC1)C(=O)NCC(NC(=O)C(CNC(=O)C(CNC(=O)CNC(=O)C(C)N1CCN(CC(=O)O)CCN(CC(=O)O)CCN(CC(=O)O)CC1)NC(=O)CNC(=O)C(C)N1CCN(CC(=O)O)CCN(CC(=O)O)CCN(CC(=O)O)CC1)NC(=O)C(CNC(=O)CNC(=O)C(C)N1CCN(CC(=O)O)CCN(CC(=O)O)CCN(CC(=O)O)CC1)NC(=O)CNC(=O)C(C)N1CCN(CC(=O)O)CCN(CC(=O)O)CCN(CC(=O)O)CC1)C(=O)NCCCCc1cccc(C#Cc2cncc([C@H](CC(=O)O)NC(=O)[C@@H]3CCCN(C(=O)CCC4CCNCC4)C3)c2)c1)N1CCN(CC(=O)O)CCN(CC(=O)O)CCN(CC(=O)O)CC1 (stereo partly drawn) [Example 1, Octagadolinium 2,3-bis-{[2,3-bis({2,3-bis[(N-{2-[4,7,10-tris(carboxylatomethyl)-1,4,7,10-tetraazacyclododecan-1-yl]propanoyl}glycyl)amino]propanoyl}amino)propanoyl]amino}-N-(4-{3-[(5-{(1S)-2-carboxy-1-[({(3R)-1-[3-(piperidin-4-yl)propanoyl]piperidin-3-yl}carbonyl)amino]ethyl}pyridin-3-yl)ethynyl]phenyl}butyl)propanamide]
Concentration within platelet pellet ([1]; incubation concentration 0.1 μM molecule, incubation time 20 min): 28.2 ± 1.8 μM Gd | Concentration within platelet pellet [1, 5]: 32.7 ± 7.8 μM Gd | pellet/supernatant [1, 5]: 131 ± 36 | Concentration within platelet pellet [1, 6]: 28.8 ± 2.2 μM Gd | pellet/supernatant [1, 6]: 108 ± 18 | Concentration within platelet pellet [1, 7]: 35.9 ± 1.6 μM Gd | pellet/supernatant [1, 7]: 81 ± 5 | Gadolinium concentration ([2]; blood): 3.3 ± 0.7 (n = 5) μM Gd | Gadolinium concentration ([2]; left carotis): 9.4 ± 0.4 (n = 4) μM Gd | Gadolinium concentration ([2]; right carotis): 4.3 ± 0.7 (n = 4) μM Gd | Gadolinium concentration ([2]; right jugular vein): 4.0 μM Gd | Gadolinium concentration ([2]; thrombus left carotis): 29.3 μM Gd | thrombus/blood ratio ([2]; thrombus left carotis): 8.9 | Gadolinium concentration ([2]; thrombus right carotis): 41.0 μM Gd | thrombus/blood ratio ([2]; thrombus right carotis): 12.4 | MRI signal intensity of incubated in vitro thrombus versus control thrombus ([3]; 0.1 μmol substance/L (0.8 μmol Gd/L) in human plasma): clearly higher signal than the control thrombi | MRI signal intensity of incubated in vitro thrombus versus control thrombus ([3]; 10 μmol substance/L in human plasma): clearly higher signal than the control thrombi | IC50 [4]: 40 nM

— patent US20170008876A1, “Metal Chelate Compounds for Binding to the Platelet Specific Glycoprotein IIb/IIIa” (BAYER PHARMA AKTIENGESELLSCHAFT, priority 2014, published 2017)
